Series [1] has as its system colorectal cancer cell line Caco-2. The experiment in a line: MTT cell viability assay, 72 hours. In kind it is cell-based. As to conditions: Caco-2, overexpresses SR-B1, 72 hours. On the procedure:
(§1) The MTT assay was performed in the following manner: First, an MTT concentrate obtained by dissolving 3-(4,5-dimethyl-2-thiazolyl)-2,5-diphenyl-2H-tetrazolium bromide (MTT, Calbiochem) in PBS at a concentration of 5 mg/mL was filtered and diluted (10%) to prepare an MTT solution. Meanwhile, the medium and the drug were removed from the cells treated with the drug or the drug-encapsulating apoA-I, and then 100 μL of the prepared MIT solution was seeded into each well and allowed to react at 37° C. in 5% CO2 for 3 hours. After completion of the reaction, the medium and the MTT solution were removed, and 100 μL of 100% DMSO was seeded into each well and allowed to react at room temperature for 20 minutes under a light-shielded condition. After completion of the secondary reaction, the absorbance of the sample at 570 nm was measured using a spectrophotometer (Spectra M2, Molecular device), and the measured value was substituted into the following equation to determine cell viability: […]
(§2) In addition, the cancer cells were treated with free EpoB or the EpoB-encapsulating apoA-I at various EpoB concentrations for 72 hours, and the cell viability for each drug was measured using an MTT (3-(4,5-dimethylthiazol-2-yl)-2,5-diphenyltetrazolium bromide) assay. […]

Series [2] has as its system breast cancer cell line ZR-75-1. Nature of the series: MTT cell viability assay, 72 hours. As to conditions: ZR-75-1, overexpresses SR-B1, 72 hours. The class given is cell-based. Here is the method: as §1, §2
(Formazan colour is commonly taken as a measure of viable cells.)

The test system of series [3] is ICR mice. Nature of the series: In vivo safety test with endotoxin-purified apoA-I (Example 7-3). Here is the method:
(§3) A solution containing the drug Epothilone B (EpoB) was sonicated in the presence of a surfactant (sodium cholate) to encapsulate the EpoB in micelles composed of the surfactant. Then, apoA-I was added to and mixed with the sonicated solution while the concentration of the surfactant was lowered below its critical micelle concentration by dilution. The remaining surfactant was removed by Bio-bead, and the remaining solution was subjected to centrifugation and size exclusion chromatography, thereby preparing an EpoB-encapsulating apoA-I (hereinafter referred to as ‘EpoB-rHDL’).
(§4) EpoB was dissolved in poly ethylene glycol 300 (PEG 300) and then diluted so that the final concentration of PEG 300 was 30% (v/v). In addition, 30% PEG 300 that is a medium for Epothilone B, and apoA-I were selected as negative controls.
(§5) Twenty-eight (seven per group) 6-week-old female ICR mice were purchased from Orientbio Inc. (Korea). The mice were subjected to veterinary inspection for general health conditions and were acclimated to the laboratory environment for 1 week. An animal test was performed in the Laboratory Animal Research Center, Sungkyunkwan University.
(§6) The test material was administered into the tail vein of the grouped ICR mice at a dose of 100 μL once a week for 4 weeks. To verify the toxicity and safety of the test material, the concentration of EpoB encapsulated in apoA-I was measured, and the poB-encapsulating apoA-I or the free EpoB was administered at a dose higher than the maximum tolerated dose of EpoB. For the first 2 weeks, the test material was administered to the ICR mice at a dose of 10 mg/kg, which corresponds four times the maximum tolerated dose of EpoB, and for the next 2 weeks, it was administered at a high EpoB dose of 81 mg/kg. The control apoA-I was administered at a dose corresponding to the concentration of apoA-I in the EpoB-encapsulating apoA-I.
(§7) To observe changes in the body weight of the mice during the test period, the body weight of the mice was measured every day after the start of the test, and diarrhea, hair loss and quadriplegia as the suspected side effects of epoB were observed.
(§8) For liver toxicity analysis, upon the death of the test animals or at the end of the test, the animals were anesthetized with a mixture of Zoletil and Rompun, and then sera were obtained by blood collection from the abdominal aorta. Alanine transferase (ALT) and aspartate transaminase (AST) in the sera were analyzed by an automatic chemistry analyzer.
(§9) Upon the death of the test animals or at the end of the test, the animals were anesthetized with a mixture of Zoletil and Rompun. Next, the liver was harvested and weighed, and the percentage of the weight of the liver relative to the body weight was comparatively analyzed. In addition, the stomach was harvested and observed to the naked eye.
Using an apoA-I purified to have an endotoxin content of 5-10 EU/mg, an EpoB-encapsulating apoA-I was prepared according to the method described in Example 7-1(1).
EpoB and the EpoB-encapsulating apoA-I were administered at doses of 10 mg/kg and 81 mg/kg, which are higher than the maximum tolerated dose of EpoB.

The test system of series [4] is ICR mice. The experiment in a line: Primary in vivo test using apoA-I with endotoxin content of more than 10,000 EU/mg (Example 7-2). As to conditions: for body weight loss / ALT / AST / Liver (%): endotoxin-containing apoA-I test; for ALT / AST: serum; for Liver (%): weight of liver relative to body weight. Here is the method:
as §3, §4, §5, §6, §7, §8, §9
In a primary test, an EpoB-encapsulating apoA-I was prepared using an apoA-I having an endotoxin content of more than 10,000 EU/mg and was administered to ICR mice once a week for 4 weeks.

[5] abbreviates: high dose 81 mg/kg, week 3 and 4.
[6] abbreviates: each ICR mouse (No. 1-7), * raised by hemolysis, listed as apoA-1.
The mark [7] stands for this setting: group average (total), hemolysis values excluded.

Consider two compounds from patent US20150037372A1, “pH-Responsive High-Density Lipoprotein-Like Particle Complex” (RESEARCH & BUSINESS FOUNDATION SUNGKYUNKWAN UNIVERSITY, priority 2012, published 2015).

Several values for one entry are separate records, joined by “and”; a condition that tells them apart may be missing. Equal entries are not always repeated.

For `C/C(=C\c1csc(C)n1)[C@@H]1C[C@@H]2O[C@]2(C)CCC[C@H](C)[C@H](O)[C@@H](C)C(=O)C(C)(C)[C@@H](O)CC(=O)O1` [EpoB, Epothilone B, reference compound], in series [1], the “cell viability compared to treatment with the EpoB-encapsulating apoA-I” value is “higher cell viability”. Further, the “cell viability compared to treatment with the EpoB-encapsulating apoA-I” value in series [2] was “higher cell viability”. The “adverse effects in appearance examination” value in the series with ICR mice [3] (10 mg/kg at week 1 and week 2) was “no adverse effects were observed”. Also, the “gastric hypersensitivity caused by abdominal lymphadenopathy” value in the series on ICR mice [3] (autopsy) was “observed in the control group”. In addition, the “Liver (%)” value in the series with ICR mice [3] (each ICR mouse (No. 1-7)) was 3.45% and 4.19% and 4.85% and 6.48% and 3.79% and 5.12% and 4.33%. Further, in the series with ICR mice [3] (setting [5]), the hair loss result is reported as “hair loss occurred”; the quadriplegia entry is given as “quadriplegia”; the “survival of the mice” value was “dead at week 3 and week 4”. Besides, the body weight loss result in the series on ICR mice [3] (high dose 81 mg/kg, week 3 and 4, EpoB values are of individual animals, 81 mg/kg) is “about 25% and 7-17% and about 11% and 11.5%”. Moreover, the “decrease of AST/ALT ratio compared to control group administered with EpoB” value in the series with ICR mice [3] (mouse, in vivo) is “about 47%”. The survival rate with ICR mice [4] (22 days after the start of administration, tail vein once a week, endotoxin-containing apoA-I) came out at 100%. In addition, in the series with ICR mice [4], the body weight loss result is “showed a body weight loss”, the ALT was 18.1 ± .38 U/L, the AST is 45.6 ± 9.3 U/L and the “Liver (%)” value amounted to 4.7 ± 0.3%.
“apoA-I: recombinant His-tagged human apolipoprotein A-I, 28 kDa, 243 amino acids; carrier protein and negative control”: in the series on ICR mice [3] (setting [6]), the ALT was 27 U/L and 25 U/L and 29 U/L and 21 U/L and 19 U/L and 15 U/L and 16 U/L; the AST is 64 U/L and 73 U/L and 56 U/L and 48 U/L and 69 U/L and 41 U/L and 49 U/L; the AST/ALTT is 2.37 and 2.92 and 1.93 and 2.29 and 3.63 and 2.73 and 3.06. Also, the “Liver (%)” value in the series with ICR mice [3] (each ICR mouse (No. 1-7), listed as apoA-1) was 3.83% and 3.55% and 4.87% and 3.42% and 4.03% and 5% and 4.13%. Moreover, the “Liver (%)” value in the series with ICR mice [3] (group average (total)) came to 4.12 ± 0.57%. In the series with ICR mice [3] (setting [7]), the ALT came out at 21.71 ± 5.03 U/L, the AST was 57.14 ± 11.03 U/L and the AST/ALT was 2.70 ± 0.52. Besides, the “survival, body weight change and hair loss” value with ICR mice [3] (high dose of about 266 mg/kg) was “did not affect the survival, body weight change and hair loss”. Besides, in the series on ICR mice [4], the body weight loss entry was “higher body weight loss”, the ALT amounted to 34.4 ± 16.9 U/L, the AST is given as 52.9 ± 13.2 U/L and the “Liver (%)” value is on record as 6 ± 1.1%. In addition, the toxicity entry in the series on ICR mice [4] (once a week for 4 weeks, apoA-I with endotoxin more than 10,000 EU/mg) is given as “toxicity was observed”.
